pIC50: −log10 of the molar value. “And” between values parts separate entries of the source, which are not always exact repeats. Identical values can stand only once.
What was measured:
rat monoamine oxidase B = target: T1, rat monoamine oxidase B (Rattus norvegicus, UniProt P19643); assay: Inhibition of MAO-B (spectrofluorimetric method); type: biochemical; details: 10 μM compound
T1 construct: from tissue
T1 sequence (P19643 1-520): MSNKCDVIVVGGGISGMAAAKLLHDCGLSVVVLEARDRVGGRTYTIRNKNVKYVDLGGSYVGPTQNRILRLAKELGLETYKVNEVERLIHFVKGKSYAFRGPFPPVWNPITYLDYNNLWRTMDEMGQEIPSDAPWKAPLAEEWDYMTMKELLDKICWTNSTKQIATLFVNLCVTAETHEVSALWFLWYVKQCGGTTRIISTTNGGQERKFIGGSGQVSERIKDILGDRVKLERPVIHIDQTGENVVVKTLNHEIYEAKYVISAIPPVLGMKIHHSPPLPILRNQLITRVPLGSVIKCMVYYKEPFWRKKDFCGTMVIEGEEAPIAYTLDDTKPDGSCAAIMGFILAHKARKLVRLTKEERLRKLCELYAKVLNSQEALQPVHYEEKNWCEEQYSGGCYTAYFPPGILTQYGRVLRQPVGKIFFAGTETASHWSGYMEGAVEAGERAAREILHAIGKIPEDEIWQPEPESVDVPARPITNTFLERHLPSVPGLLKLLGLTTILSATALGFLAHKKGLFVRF
From the text: (§1) 2.2.2.6 Inhibition Study on MAOs in vitro
(§2) Inhibition of rat monoamine oxidase A and B was studied by means of a spectrofluorimetric method as previously detailed.

[1] = target: T2, electric eel acetylcholinesterase (eeAChE) (Electrophorus electricus, UniProt O42275); assay: biochemical; type: biochemical; details: for pIC50: read-out: eeAChE IC50 μΜ; for inhibition at 10 µM: read-out: eeAChE % inhibn. @ 10 μΜ
T2 construct: purchased Sigma
From the text: (§3) 2.2.2.5 Inhibition Study on ChEs in vitro
(§4) In vitro inhibition of electric eel acetylcholinesterase (eeAChE; 463 U/mg, Sigma) and equine serum butyrylcholinesterase (esBChE; 13 U/mg, Sigma) was investigated with a 96-well plate procedure based on the classical Ellman’s spectrophotometric test, as already described.

[2] = target: T3, equine serum butyrylcholinesterase (esBChE) (Equus caballus, UniProt P81908); assay: Inhibition of esBChE (Ellman's test); type: biochemical; details: for inhibition at 10 µM: read-out: esBChE % inhibn. @ 10 μΜ
T3 construct: purchased Sigma; host or cells: equine serum
From the text: as §3, §4

soybean lipoxygenase = target: T4, soybean lipoxygenase (Glycine max, UniProt P08170); assay: Soybean lipoxygenase inhibition in vitro; type: biochemical; details: for %LOX @ 100μΜ: 100 μM compound; for inhibition at 100 µM: read-out: %LOX @ 100μΜ; for pIC50: read-out: LOX IC50 μΜ
T4 construct: purchased Sigma Chemical, Co. (St. Louis, MO, USA)
T4 sequence (P08170 1-839): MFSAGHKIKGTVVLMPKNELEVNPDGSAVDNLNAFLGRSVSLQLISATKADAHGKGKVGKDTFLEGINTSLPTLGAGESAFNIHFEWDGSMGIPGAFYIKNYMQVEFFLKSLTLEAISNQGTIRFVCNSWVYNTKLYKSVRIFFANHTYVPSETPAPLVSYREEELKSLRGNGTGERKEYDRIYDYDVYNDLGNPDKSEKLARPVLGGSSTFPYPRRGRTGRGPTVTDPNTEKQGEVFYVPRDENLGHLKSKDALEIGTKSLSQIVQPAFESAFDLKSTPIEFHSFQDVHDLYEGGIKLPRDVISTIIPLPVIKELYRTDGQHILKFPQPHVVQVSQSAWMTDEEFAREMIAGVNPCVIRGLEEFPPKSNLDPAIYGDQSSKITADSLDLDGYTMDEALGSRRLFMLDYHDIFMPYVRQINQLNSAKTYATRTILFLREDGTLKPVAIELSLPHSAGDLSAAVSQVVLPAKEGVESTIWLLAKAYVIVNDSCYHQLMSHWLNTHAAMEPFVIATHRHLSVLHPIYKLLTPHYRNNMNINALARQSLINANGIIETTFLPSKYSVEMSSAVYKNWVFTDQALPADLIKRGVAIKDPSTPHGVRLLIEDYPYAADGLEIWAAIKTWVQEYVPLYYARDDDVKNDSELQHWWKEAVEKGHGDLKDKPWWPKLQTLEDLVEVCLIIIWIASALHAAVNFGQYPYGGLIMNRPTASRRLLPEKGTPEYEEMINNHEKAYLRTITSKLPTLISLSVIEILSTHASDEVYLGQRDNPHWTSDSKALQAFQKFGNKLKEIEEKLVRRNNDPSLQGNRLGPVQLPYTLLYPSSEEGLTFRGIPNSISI
Method: 2.2.2.4 Soybean lipoxygenase inhibition study in vitro [14]
In vitro study was evaluated as reported previously. The tested compounds dissolved in ethanol were incubated at room temperature with sodium linoleate (0.1 mM) and 0.2 ml of enzyme solution (1/9 x10^-4 w/v in saline). […] Several concentrations were used for the determination of IC50 values (Table 5).
LO is the key enzyme in leukotriene biosynthesis. Leukotrienes derived from the biotransformation of arachidonic acid catalyzed by 5-lipoxygenase (5-LO), are important inflammatory mediators implicated in several diseases. LOs play a role in membrane lipid peroxidation by forming hydroperoxides in the lipid bilayer. […] Most of the LO inhibitors are antioxidants or free radical scavengers, since lipoxygenation occurs via a carbon-centered radical. The evaluation of the novel coumarin hybrids against soybean lipoxygenase LO was accomplished by the UV-based enzyme assay.

rat monoamine oxidase A = target: T5, rat monoamine oxidase A (Rattus norvegicus, UniProt P21396); assay: Inhibition of MAO-A (spectrofluorimetric method); type: biochemical; details: 10 μM compound
T5 construct: from tissue
T5 sequence (P21396 1-526): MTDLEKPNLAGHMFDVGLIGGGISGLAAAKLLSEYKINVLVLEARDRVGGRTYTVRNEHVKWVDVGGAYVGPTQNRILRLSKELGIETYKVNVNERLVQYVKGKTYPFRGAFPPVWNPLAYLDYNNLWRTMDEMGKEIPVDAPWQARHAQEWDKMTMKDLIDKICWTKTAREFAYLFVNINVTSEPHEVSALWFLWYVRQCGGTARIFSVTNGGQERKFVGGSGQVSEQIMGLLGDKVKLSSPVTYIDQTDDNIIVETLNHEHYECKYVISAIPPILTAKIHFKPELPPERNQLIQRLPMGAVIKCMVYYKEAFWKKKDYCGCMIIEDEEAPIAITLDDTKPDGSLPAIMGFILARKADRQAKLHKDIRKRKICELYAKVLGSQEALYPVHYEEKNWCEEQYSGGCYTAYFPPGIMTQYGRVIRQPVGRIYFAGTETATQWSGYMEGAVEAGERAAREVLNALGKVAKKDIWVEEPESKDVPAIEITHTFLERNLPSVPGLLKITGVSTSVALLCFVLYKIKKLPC
From the text: as §1, §2

[3] = Inhibition of linoleic acid lipid peroxidation (AAPH); details: 100 μM compound, 37°C
Method: 2.2.2.3 Inhibition of linoleic acid lipid peroxidation
Production of conjugated diene hydroperoxide by oxidation of linoleic acid sodium salt in an aqueous solution was monitored at 234 nm. 2,2’-Azobis(2-amidinopropane) dihydrochloride (AAPH) was used as a free radical initiator. 10 μl of the 16 mM linoleic acid sodium salt solution was added to the UV cuvette containing 0.93 ml of 0.05 M phosphate buffer, pH 7.4 prethermostated at 37°C. The oxidation reaction was initiated at 37°C under air by the addition of 50 μl of 40 mM AAPH solution. Oxidation was carried out in the presence of 10 μl of the examined compounds (stock solution in DMSO). In the assay without antioxidant, lipid oxidation was measured in the presence of the same level of DMSO. The rate of oxidation at 37°C was monitored by recording the increase in absorption at 234 nm caused by conjugated diene hydroperoxides (Table 5). Trolox was used as a standard.
Anti-lipid peroxidation activity. The water-soluble azo compound AAPH has been extensively used as a clean and controllable source of thermally produced alkyl peroxyl free radicals, through spontaneous thermal decomposition. […] In the AAPH assay, the highly reactive alkylperoxyl radicals are intercepted mainly by a hydrogen atom transfer (HAT) from the antioxidant.

[4] = Reducing activity of the stable radical DPPH; details: 100 μM compound, after 20 min
Method: 2.2.2.1 Determination of the reducing activity of the stable radical 1, 1-diphenyl-picrylhydrazyl (DPPH)
To a solution of DPPH (100μM) in absolute ethanol an equal volume of the compounds dissolved in ethanol was added. As control solution ethanol was used. The concentration of the solutions of the compounds was 100μM. After 20 and 60 min at room temperature the absorbance was recorded at 517 nm (Table 5). NDGA was used as a standard.
The compounds were studied for their antioxidant activity by the use of the stable 2,2-diphenyl-1-picrylhydrazyl radical (DPPH) at concentration 0.1mM after 20 min. […] This purple colour generally disappears in the presence of an antioxidant. The reduction of absorbance is a measure of the free DPPH due to the action of the antioxidant. The antioxidant activity was expressed as the RA% (Reducing Activity). […] Within the group of derivatives 4 the presence of the morpholinyl or piperidinyl rings at position A as well as the carbonyl group at position B, hinder the interaction of the compounds to the free stable radical DPPH.

T2 sequence (O42275 24-633): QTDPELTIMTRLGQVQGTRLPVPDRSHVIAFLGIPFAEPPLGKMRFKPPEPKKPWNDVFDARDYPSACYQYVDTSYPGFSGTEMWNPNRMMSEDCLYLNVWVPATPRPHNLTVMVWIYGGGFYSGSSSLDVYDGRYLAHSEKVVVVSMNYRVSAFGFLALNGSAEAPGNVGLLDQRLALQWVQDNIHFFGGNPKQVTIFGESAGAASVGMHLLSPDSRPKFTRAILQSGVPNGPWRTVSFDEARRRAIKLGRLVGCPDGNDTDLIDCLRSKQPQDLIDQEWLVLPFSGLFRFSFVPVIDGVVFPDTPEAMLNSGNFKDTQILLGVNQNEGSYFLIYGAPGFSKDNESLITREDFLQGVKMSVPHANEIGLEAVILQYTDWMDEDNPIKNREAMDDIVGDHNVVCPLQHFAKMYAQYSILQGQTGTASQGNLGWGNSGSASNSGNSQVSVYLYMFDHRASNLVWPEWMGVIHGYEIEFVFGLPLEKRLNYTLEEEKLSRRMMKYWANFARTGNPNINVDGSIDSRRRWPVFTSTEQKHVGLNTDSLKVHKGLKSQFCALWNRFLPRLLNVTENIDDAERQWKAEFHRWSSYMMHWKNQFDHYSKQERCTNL
T3 sequence (P81908 whole entry): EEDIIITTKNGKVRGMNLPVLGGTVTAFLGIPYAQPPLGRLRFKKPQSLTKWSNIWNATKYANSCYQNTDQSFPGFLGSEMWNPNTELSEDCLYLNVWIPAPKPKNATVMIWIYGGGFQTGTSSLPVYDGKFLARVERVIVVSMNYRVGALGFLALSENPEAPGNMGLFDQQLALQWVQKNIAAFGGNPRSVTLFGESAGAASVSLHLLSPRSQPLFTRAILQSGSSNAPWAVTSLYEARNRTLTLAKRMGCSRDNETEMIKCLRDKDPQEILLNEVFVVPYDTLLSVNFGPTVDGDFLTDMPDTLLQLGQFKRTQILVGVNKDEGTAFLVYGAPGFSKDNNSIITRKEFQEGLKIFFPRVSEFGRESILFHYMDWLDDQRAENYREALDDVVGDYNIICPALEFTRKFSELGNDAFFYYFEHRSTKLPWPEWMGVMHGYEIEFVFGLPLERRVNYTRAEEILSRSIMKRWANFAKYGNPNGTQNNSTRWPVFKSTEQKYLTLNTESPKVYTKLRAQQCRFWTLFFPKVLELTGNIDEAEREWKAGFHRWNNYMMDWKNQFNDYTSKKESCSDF

Compound | MAO-B (%) @ 10μΜ (rat monoamine oxidase B) | pIC50 [1] | inhibition at 10 µM [2] [%] | %LOX @ 100μΜ (soybean lipoxygenase) | MAO-A (%) @ 10μΜ (rat monoamine oxidase A) | LP % @ 100μΜ (inhibition of lipid peroxidation) [3] | RA% @ 100μΜ (reducing activity, DPPH) [4] | inhibition at 10 µM [1] [%] | inhibition at 100 µM (soybean lipoxygenase) [%] | pIC50 (soybean lipoxygenase) | pIC50 ([2]; read-out: esBChE IC50 μΜ)
Cc1cc(=O)oc2cc(OCC3=NOC(Cn4cnc5c(Cl)ncnc54)C3)ccc12 (stereo not drawn) [11e] | 9% | 5.11 | 8 | no | no | 63% | – | – | – | – | –
Cc1cc(=O)oc2ccc(OCc3cc(Cn4cnc5c(N6CCCCC6)ncnc54)no3)cc12 [13a, 4-methyl-6-({3-[(6-piperidin-1-yl-9H-purin-9-yl)methyl]isoxazol-5-yl}methoxy)-2H-chromen-2-one] | 33% | – | 23 | no | 47% | – | no | 40 | – | – | –
Cc1cc(=O)oc2cc(OCC3=NOC(Cn4cnc5c(N6CCOCC6)ncnc54)C3)ccc12 (stereo not drawn) [11f] | 8% | – | 14 | no | 16% | 48% | – | 43 | – | – | –
Cc1cc(=O)oc2cc(OCCC3CC(Cn4cnc5c(N6CCOCC6)ncnc54)=NO3)ccc12 (stereo not drawn) [4i] | no | 5.11 | 15 | – | 25% | 54% | – | – | 2 | – | –
Cc1cc(=O)oc2ccc(OCC3CC(Cn4cnc5c(N6CCOCC6)ncnc54)=NO3)cc12 (stereo not drawn) [4b] | 24% | 5.64 | 17 | – | no | no | – | – | – | 4.22 | –
O=c1ccc2ccc(OCc3cc(Cn4cnc5c(N6CCCCC6)ncnc54)no3)cc2o1 [13e] | 15% | 5.76 | – | – | 18% | – | no | – | – | 4.20 and 4.21 | 4.74
Cc1cc(=O)oc2ccc(OCc3cc(Cn4cnc5c(N6CCOCC6)ncnc54)no3)cc12 [13b] | no | 5.51 | 13 | – | 12% | – | no | – | 44 | – | –

From article PMC5748833, “Synthesis and Biological Evaluation of Novel Hybrid Molecules Containing Purine, Coumarin and Isoxazoline or Isoxazole Moieties” (The Open Medicinal Chemistry Journal, 2017)
